Assay results published in US7919260B2, “Screening methods using GPR52” (Takeda Pharmaceutical Company Limited, priority 2005, dated 2011).

Legend:
Assay type in all cases: cell-based
[1] = tested on: NMDA-type glutamate receptor; test: Activation of NMDA-type glutamate receptor in neurons from rat embryonic cerebral cortex (fura-2 intracellular calcium, AQUACOSMOS)
Method: Neurons from rat embryonic cerebral cortex (CAMBREX) were cultured in a 48-well poly-L-lysine (Sumitomo Bakelite) for 14-15 days by a modification of the method attached. A neuron culture medium (Dainippon Pharmaceutical) was used as a medium, unless otherwise indicated. Changes in intracellular calcium levels were assayed using AQUACOSMOS (Hamamatsu Photonics). For assaying the changes in intracellular calcium levels, the following pretreatment was made. First, in order to add fluorescence dye fura-2/AM (Molecular Probes) to cells, an assay buffer used to wash the cells immediately before the assay was prepared. To 1000 ml of HBSS (Invitrogen) supplemented with 20 ml of 1M HEPES (pH7.4) (DOJIN) (hereinafter HBSS/HEPES solution), 10 ml of a solution prepared by dissolving 710 mg of Probenecid (Sigma) in 5 ml of 1N NaOH and further adding 5 ml of the HBSS/HEPES solution thereto was added, and the resulting solution was used as the assay buffer. Next, an equal volume of 20% Pluronic acid (Molecular Device) was added to and mixed with the fura-2/AM stock solution. The mixture was dissolved in the assay buffer in a final concentration of 5 μM fura-2 to prepare the fura-2 fluorescence dye solution. The fura-2 fluorescence dye solution was loaded on neurons from the rat embryonic cerebral cortex, followed by incubation for 30-60 minutes. Thereafter, the changes in calcium levels in the individual neurons were determined using AQUACOSMOS (Hamamatsu Photonics).
Activation of the NMDA-type glutamate receptor in the cerebral cortex was analyzed by the procedures described in EXAMPLE 9.

[2] = tested on: NMDA-type glutamate receptor; test: Phosphorylation (Ser897) of NMDA-type glutamate receptor in rat primary culture neurons (western blot, Anti-phospho-NR1); details: 50 μM Compound A; cells recovered 1, 2, 5, 15 and 30 minutes after
Method: Using primary culture neurons from the rat […], phosphorylation of the NMDA-type glutamate receptor by GPR52 agonists was studied. Rat (Wistar, Charles River Japan) embryonic brain (E19) was dissected to isolate the cerebral cortex, and the cells were prepared using Neuron Dispersion Set (Dainippon Pharmaceutical). The cells were plated on a 24-well poly-L-lysine plate (3×10^5 cells/well) and incubated for 2 weeks in Neuro Basal (B27, containing 0.5 mM glutamine, GIBCO) medium. Compound A was added to the above cells at a final concentration of 50 μM, and the cells were recovered 1, 2, 5, 15 and 30 minutes after. After the cells were lysed in Invitrogen's NuPAGE Sample Buffer (containing DTT), western blot analysis was performed using antibody Anti-phospho-NR1 (Ser897) (Upstate).

GPR52 [3] = target: T1, GPR52 (Homo sapiens, UniProt Q9Y2T5); test: Screening of GPR52 agonists: intracellular cAMP in GPR52 stable expression cells (AlphaScreen cAMP Assay Kit); design: expressed in transfected cells; details: secondary screening at 100-0.1 μM
Method: The GPR52 stable expression cells prepared in REFERENCE EXAMPLE 1 were incubated in a 150 cm^2 at 37° C. overnight in a CO2 incubator. After the incubation, the cells were detached with 0.5 mM EDTA/PBS, and washed in PBS. The cells were then suspended at a density of 1×10^7 cells/ml in Buffer 1 (HBSS+0.1% BSA, 25 mM HEPES, pH 7.3, 0.5 mM IBMX). This cell suspension, 440 μl, was mixed with 22 μl of Anti-cAMP Acceptor Beads of AlphaScreen cAMP Assay Kit (Perkin Elmer) and 638 μl of Buffer 1. The resulting mixture was dispensed on a white 96-well plate (Costar) by 10 μl each. Next, 10 μl each of the test compound dilutions in Buffer 1 was added to each well. After shaking at room temperature for 30 minutes, 20 μl of Biotinyl cAMP and 82 μl of Streptavidin Donor Beads of AlphaScreen cAMP Assay Kit was added to 40 ml of Buffer 2 (HBSS+0.1% BSA, 25 mM HEPES, pH 7.3, 1.5% Tween 20) and the resulting mixture was added to all wells of the plate by 30 μl each. The plate was kept shaken at room temperature for 3 hours and the fluorescence intensities were measured by Fusion α (Perkin Elmer).
Secondary screening was applied to these compounds in various concentrations (100 μM, 30 μM, 10 μM, 3 μM, 1 μM and 0.1 μM) using the procedures described in EXAMPLE 11 (detailed analysis).

GPR52 [4] = target: T1, GPR52; test: Changes in intracellular calcium levels on FLIPR in CNGC-E583M/HEK293 cells transiently expressing human GPR52; design: expressed in transfected cells; host or cells: CNGC-E583M/HEK293 cells (HEK293 stably expressing rat olfactory cyclic nucleotide-gated channel E583M), transient transfection of pAKKO-GPR52; details: human GPR52 transiently expressed in CNGC-E583M/HEK293; reserpine 1.0-100 μM (FIG. 1), methoctramine 15-75 μM (FIG. 2); no such response in control cells transfected with other receptor vector
Method: The stable expression cell line (CNGC-E583M/HEK293 cell line) of rat olfactory cyclic nucleotide-gated channel (CNGC-E583M), which was used as a host cell, was obtained by inserting rat olfactory cyclic nucleotide-gated channel (CNGC-E583M) cDNA into expression vector pcDNA3.1(+) neo (Invitrogen) (pcDNA3.1-CNGC), transfecting pcDNA3.1-CNGC into HEK293 cells (purchased from ATCC) in a conventional manner, and incubating the cells in DMEM (Dulbecco's modified Eagle medium) supplemented with 10% fetal calf serum (Invitrogen) and 800 mg/l geneticin (Invitrogen) under 5% CO2 at 37° C. [Fagan et al., FEBS, 500, 85 (2001); Reinescheid et al., European Journal of Pharmacology, 478, 27 (2003)]. The CNGC-E583M/HEK293 cells were incubated in a collagen-coated 75 cm^2 flask. […] First, an assay buffer was prepared to add fluorescence dye Fluo-3AM (DOJIN) to the cells or to wash the cells immediately before the FLIPR assay. […] The mixture was then added to 10.6 ml of the assay buffer supplemented with 105 μl of fetal calf serum, and 20 μl of 500 mM IBMX/DMSO was further added to prepare a fluorescence dye solution. The fluorescence dye solution was dispensed onto the cell plate by 100 μl each/well using an 8-channel pipette and the cells were incubated at 37° C. in a 5% CO2 incubator for an hour (dye loading). […]

human GPR52-GFP = target: T2, human GPR52-GFP (Homo sapiens, UniProt Q9Y2T5, I167T); test: Internalization of GPR52-GFP fusion protein expressed in CHO cells (confocal microscopy); details: reserpine 10^-4 M, 30 minutes after addition
T2 construct: expressed in transfected cells; host or cells: CHO cells, vector pAKKO-111H
Text: An expression plasmid was constructed to express a fused protein of Green Fluorescent Protein (GFP) cDNA isolated from jellyfish or Auquorea victoria, fused to GPR52 at the C-terminus to fit the translation frame. In this case, a fragment excised from GFP expression vector pQBI25 (Takara Shuzo) was used as GFP cDNA. In GPR52, its termination codon was modified by PCR to recognition sequence with restriction enzyme NheI, and the GFP fragment was ligated thereto, which was inserted into the expression vector pAKKO-111H [Biochem. Biophys. Acta, 1219, 251 (1994)] and transfected to CHO cells in a conventional manner to obtain the human GPR52-GFP expression CHO cell line. The human GPR52-GFP expression CHO cells were suspended in a growth medium [αMEM (containing nucleic acids: Invitrogen) supplemented with 10% fetal calf serum (GIBCO BRL)] and plated on a Lab-TekII cover glass chamber with 4 chambers (Nalgen Nunc) in a concentration of 0.6×10^5 cells/chamber. […] In this case, GFP was excited at 488 nm.

GPR52 [5] = target: T1, GPR52; test: Increase of intracellular cAMP levels in human GPR52 expression CHO cell line (cAMP Screen Kit); design: expressed in transfected cells; details: reserpine in various concentrations, 30 minutes; negative controls Mock CHO and TGR5 CHO cell lines (FIG. 3)
Method: The human GPR52 expression CHO cells obtained in REFERENCE EXAMPLE 1 was washed in the assay medium (HBSS (Gibco BRL) supplemented with 0.2 mM isobutylmethylxanthine), followed by incubation for 30 minutes under conditions at 37° C. in 5% CO2. Then, reserpine diluted in the assay medium was added in various concentrations. The assay buffer alone was used as a Base. After the addition, incubation was conducted for 30 minutes under conditions at 37° C. in 5% CO2. The culture supernatant was discarded and the intracellular cAMP level was assayed on the plate reader (EnVision, Perkin-Elmer) in accordance with the protocol of cAMP Screen Kit (Applied Biosystems). As negative controls, the CHO cell line (Mock) wherein no exogenous receptor was expressed and the CHO cell line (TGR5) wherein Gs-conjugated receptor TGR5 was stably expressed were co-assayed.

`Cc1ncc2c(n1)N(CCCN1CCNCC1)CCC2Nc1cccc(Oc2cccc(Cl)c2)c1.Cl.Cl.Cl.Cl` (stereo not shown) [Compound A, N-[3-(3-chlorophenoxy)phenyl]-2-methyl-8-[3-(1-piperazinyl)propyl]-5,6,7,8-tetrahydropyrido[2,3-d]pyrimidine-5-amine tetrahydrochloride] was tested, and the “calcium level increase on addition after glutamate” value ([1]; 10 μM glutamate, then 10 μM Compound A during diminution of the calcium increase) was “reactivated to induce the calcium level increase”, the “calcium level increase, compound alone without glutamate” value ([1]; 15 μM Compound A alone, glutamate not added) was “any increase in calcium levels was not observed” and the “phosphorylation (Ser897) of the NMDA-type glutamate receptor” value [2] was “induced phosphorylation (Ser897)”. For the same compound, the EC50 (GPR52 [3]) was 2.1 µM.

For `COc1ccccc1CNCCCCCCNCCCCCCCCNCCCCCCNCc1ccccc1OC` [methoctramine], the “calcium level increase (ratio of Fura-2 fluorescence) on addition after glutamate” value ([1]; 10 μM glutamate, then 0.2 mM methoctramine during diminution of the calcium increase, n=11 neurons (FIG. 4)) was “reactivated to induce the calcium level increase”, the “calcium level increase (ratio of Fura-2 fluorescence), compound alone without glutamate” value ([1]; 0.2 mM methoctramine alone, glutamate not added beforehand, n=27 neurons (FIG. 5)) was “any increase in calcium levels was not observed” and the “intracellular calcium ion levels” value (GPR52 [4]) was “increased dose-dependently”.

For `COC(=O)[C@H]1[C@H]2C[C@@H]3c4[nH]c5cc(OC)ccc5c4CCN3C[C@H]2C[C@@H](OC(=O)c2cc(OC)c(OC)c(OC)c2)[C@@H]1OC` [reserpine], the “internalization of GPR52-GFP fused protein (GFP fluorescence moved from cell membrane to cytoplasm)” value (human GPR52-GFP) was “internalization occurred”, the “intracellular calcium ion levels” value (GPR52 [4]) was “increased dose-dependently” and the “intracellular cAMP levels” value (GPR52 [5]) was “detected dose-dependently only in the human GPR52 expression CHO cell line”.
